Read-outs that look alike come from different tables or passages of the source.
Columns and labels:
mouse model of asthma = experiment: Mouse model of asthma (House Dust Mite antigen sensitization and rechallenge); type: in vivo, mice; details: treated upon intratracheal rechallenge
Experimental: Mice were sensitized to House Dust Mite antigen (HDM) in the absence of drug. Upon intratracheal rechallenge the mice were treated with vehicle or 25.

4T1-Luc tumor cells = experiment: 4T1-Luc mammary tumor model: myeloid cells, TAM and fibrocytes by flow cytometry; type: in vivo, BALB/c mice; details: 1 mg/kg daily from day 7 to day 17
Experimental: 4T1-Luc tumor cells (0.1 million) were injected into the mammary fat pads of 8-week-old female BALB/c mice. Mice received vehicle (PBS) or 1 mg/kg 25 daily from day 7 to day 17. Anti-PD1 antibody (5 mg/Kg) was administered i.p. on day 5, 8, 12 and 17. Percentages of myeloid-derived suppressor cell (MDSC) from circulating blood were monitored on day 6, 9 and 17 by flow cytometry with CD11b and Ly6C/Ly6G. Granulocytic MDSC (G-MDSC): CD11b+ Ly6g+ Ly6c low Monocytic MDSC (Mo-MDSC): CD11b+ Ly6G-Ly6c Hi.
4T1-Luc tumor cells (0.2 million) were injected into the mammary fat pads of 8-week-old female BALB/c mice. Mice received vehicle (PBS) or 1 mg/kg compound 25 daily from day 7 to day 17. Anti-PD1 antibody (5 mg/Kg) was administered on day 5, 8, 12 and 17. Tumors were evaluated for tumor infiltrating cells on day 21. Cells were seeded on plates and golgi plug 200 ul were added to inhibit cytokine secretion for overnight (no additional stimulation). Tumor associated macrophages markers: Live/CD45+/CD11b+/F4-80+/CD8− for flow cytometry analysis. Macrophages derived from tumor. The cells were incubated with Golgi plug o.n. w/o stim. TAM: Live/CD45+/CD11b+/F4-80+/CD8−.
4T1-Luc tumor cells (0.1 million) were injected into the mammary fat pads of 8-week-old female BALB/c mice. Mice received vehicle (PBS) or 1 mg/kg 25 daily from day 7 to day 17. Anti-PD1 antibody (5 mg/Kg) was administered on day 5, 8, 12 and 17. Tumors were evaluated for tumor infiltrating cells on day 21. Fibrocytes markers: CollagenI+CD11b+CD45+ live were used for flow cytometry analysis.

[1] = pig microsomes
Neuromyelitis Optica = experiment: Neuromyelitis optica model (adoptive transfer of auto-reactive T cells); design: species or system mice; details: mouse, in vivo
Experimental: Auto-reactive T cells were adoptively transferred into mice treated with PBS or 25 and mean paralysis scores were measured.

EAE = experiment: Multiple sclerosis model (EAE, C57BL/6+MOG35-55); type: in vivo, mice
Experimental: FIG. 21A and FIG. 21B show the targeting of glutamine metabolism in multiple sclerosis. Animals were immunized for EAE (C57BL/6+MOG35-55). Mice were treated with vehicle or 25 either q.d. from the day of immunization (day 0, left), or b.d. from the time of disease onset (EAE disease score≥1, right).

[2] = human microsomes

Q: With `CCOC(=O)[C@H](CCC(=O)C=[N+]=[N-])NC(=O)[C@@H](N)CC(C)C` [Compound 25] as the compound, how does the “levels of HDM specific IgE” value (mouse model of asthma) read?
A: reduced

Q: What about the lung pathology (mouse model of asthma) of the same compound?
A: inhibited pathology

Q: And the “recruitment/generation of Th2 cells” value (mouse model of asthma)?
A: inhibited

Q: What about the “CD11b+ cells and G-MDSCs in circulating blood” value (4T1-Luc tumor cells; anti-PD1 antibody also given) of the same compound?
A: reduced CD11b+ cells and G-MDSCs

Q: What about the “TNF alpha in tumor associated macrophages” value (4T1-Luc tumor cells; tumors evaluated day 21) of the same compound?
A: increased TNF alpha

Q: And the tumor infiltrating fibrocytes (4T1-Luc tumor cells; tumors evaluated day 21)?
A: reduced fibrocytes

Q: What about the liver microsomal stability [1] of the same compound?
A: moderate-high stability

Q: What about the mean paralysis scores (Neuromyelitis Optica) of the same compound?
A: unexpected effectiveness

Q: What about the “EAE disease, treatment” value (EAE; b.d. from the time of disease onset (EAE disease score≥1)) of the same compound?
A: unexpected effectiveness

Q: And the “EAE disease, prevention” value (EAE; q.d. from the day of immunization (day 0))?
A: unexpected effectiveness

Q: What about the liver microsomal stability [2] of the same compound?
A: moderate-high stability
